Reference: US10738061B2, “Inhibitors of RAD52 recombination protein and methods using same” (Drexel University, priority 2015, dated 2020)

Experiments:
[1] = tested on: BCR-ABL1-positive BRCA1-deficient 32Dc13 murine hematopoietic cell line that expresses GFP-RAD52; assay: GFP-RAD52 foci formation in response to cisplatin; type: cell-based; details: compound 2.5 μM
Procedure: GFP-RAD52 foci formation was measured in BCR-ABL1-positive BRCA1-deficient 32Dc13 murine hematopoietic cell line that expresses GFP-RAD52 (Cramer-Morales et al., 2013, Blood 122, 1293-1304). RAD51 foci formation was measured in parental 32Dc13.
Both cell lines were cultured in IMDM plus 10% FBS. […] After 4 h of incubation, the cells were treated with 3 μg/mL cisplatin for 16 h. Following cisplatin treatment, cytospins were prepared using polylysine coated slides (Thermo Scientific). DNA was counterstained with DAPI. To detect RAD51 foci, cells were stained with an anti-RAD51 antibody (Thermo Scientific), followed by a secondary antibody conjugated with AlexaFluor 594. RAD51 and GFP-RAD52 foci were visualized with an inverted Olympus IX70 fluorescence microscope equipped with a Cooke Sensicam QE camera (The Cooke Co., Auburn Hills, Mich., USA). Images from 25-60 cells/group were processed using SlideBook 3.0 (Intelligent Imaging Innovation).
In response to DNA damage, RAD52 accumulates in the nucleus forming distinct structures known as foci (Essers et al., 2002, EMBO J. 21, 2030-2037; Liu et al., 2000, EMBO Rep 1, 85-90). The foci represent RAD52 complexes with DNA repair intermediates. Inhibitors of RAD52 may decrease RAD52 foci formation by disrupting its interaction with DNA substrates.

[2] = tested on: BRCA1/2-deficient cell lines; assay: Growth of BRCA1/2-deficient cell lines (summary over tested lines); type: cell-based, Human
Procedure: (§1) BxPC3 cells were kept in RPMI 1640 (ATCC) media supplemented with 10% FBS (Gibco). Capan-1/BxPC3 Capan-1 cells were kept in IMDM (ATCC) media containing 20% FBS (GIBCO). […] cells were kept in 48.5% RPMI1640 (ATCC), 48.5% MEGM (Clonetics/Lonza, MEGM kit, CC-3150) and 3% FBS (GIBCO) respectively. Cells in log-phase were harvested and 100 μl cell suspensions were replated in a 96-well plate with a final density of 4000 cells/well. After overnight growth, cells were treated with indicated concentrations of compounds. Media containing the invariant concentration of compounds were refreshed every 3 days until cells were finally lysed by 30 μl/well of Promega CellTiter-Glo reagents and read on a Promega GloMax 96 reader on day 10 (9 days exposure).
as §1, with “(Gibco);” for “(Gibco). Capan-1/BxPC3”, “(GIBCO);” for “(GIBCO).”, “exposure). Promega CellTiter-Glo protocol is available on the web: www dot promega dot com/resources/protocols/technical-bulletins/0/celltiter-glo-luminescent-cell-viability-assay-protocol/” for “exposure).”
MDA-MB-436 cells were cultured in RPMI+10% FBS. BRCA-proficient and BRCA-deficient cells were plated on day 0 in triplicate at 5,000 cells/well. […] Cells were counted on day 4 on a hemocytometer, using Trypan Blue exclusion, and immediately were plated in a clonogenic assay at a density of 500 cells/well in a 6 well plate, in RPMI+10% FBS. […]

salmon sperm DNA = assay: Acridine orange displacement assay for DNA binding
Procedure: The selected compounds were tested their abilities to bind DNA to rule out DNA binding as an undesired mechanism of action. The compounds in varied concentrations were added into 30 μl reaction mixtures containing 50 nM acridine orange and 6 μg/ml salmon sperm DNA, 10 mM HEPES, pH 7.5; 1 mM EDTA pH 7.5; 100 mM NaCl in 384-well plates, and the reactions were incubated at room temperature for 20 min followed by fluorescence polarization measurement using an EnVision (Perkin Elmer) equipped with a 480 nm excitation filter and 535 nm S and P emission filters with a D505 FP/D535 dichroic mirror. Mitoxantrone (10 μM) was used as a positive control. The S and P values are processed with the standard fluorescence polarization calculation formula (mP=1000*(S-G*P)/(S+G*P) where G is the G-factor and is approximately 1.

In the case of `COc1ccc(OC)c(Nc2nc(NCCCO)c3ccccc3n2)c1` [D-G23, 3-((2-((2,5-dimethoxyphenyl)amino)quinazolin-4-yl)amino)propan-1-ol], the “fraction of cells with RAD52 foci (>5 foci)” value ([1]; cisplatin-treated, without inhibitor 38.7±10%) is reported as 19±0.4%, the “fraction of cisplatin-treated cells without foci” value ([1]; without inhibitor 48.4±6.2%) is reported as 57.6±0.5% and the “preferential inhibition of BRCA1/2-deficient cell lines (summary)” value [2] is reported as “preferentially inhibited at least two BRCA1/2-deficient cell lines”. The DNA binding (salmon sperm DNA) was “did not bind DNA”.
